Source: patent publication US20080305038A1, “Transport of Nano-and Macromolecular Structures Into Cytoplasm and Nucleus of Cells” (LUDWIG-MAXIMILIANS-UNIVERSITÄT, priority 2005, published 2008)

What was measured:
[1] = Influence of TP-modification on activity of β-galactosidase; type: biochemical
Method: (§1) Analogous to sections 2.1 to 2.3 above the enzyme β-galactosidase was modified with TP. […] Subsequent to modification HepG2 cells were incubated with (TP) modified β-galactosidase (5 μM) for 1 h or 24 h and then fixed in paraformaldehyde. β-galactosidase activity was visualized by using X-Gal (see FIG. 6).

HepG2 cells = assay: Uptake of β-galactosidase, activity visualized by X-Gal; type: cell-based; conditions: 5 μM
Method: as §1

Substance: FITC-β-galactosidase-TP: enzyme β-galactosidase modified with thiopyridyl via SPDP, conjugation degree about 1
- influence of TP-modification on activity of β-galactosidase [1]: does not exhibit any influence on activity of β-galactosidase
- cellular uptake of β-galactosidase (HepG2 cells; 1 h or 24 h): uptake of β-galactosidase into cytoplasm and nucleus into many cells
- nuclear uptake of β-galactosidase (HepG2 cells; 1 h or 24 h): uptake of β-galactosidase into cytoplasm and nucleus into many cells
- nuclear uptake of β-galactosidase (HepG2 cells; 1 h or 24 h, listed as (TP) modified β-galactosidase): clearly observable
- positive cells and nucleoli (HepG2 cells; 24 h incubation): almost all cells and their nucleoli showed a positive signal
